{"source": "patent US8957022B2", "about": "“Multimeric tie 2 agonists and uses thereof in stimulating angiogenesis” (Sunnybrook Health Sciences Centre, priority 2006, dated 2015)", "system": "MMP2", "experiment": "Gelatin zymography of HUVEC conditioned media", "format": "cell-based, human", "conditions": "HUVEC, 0.1% FBS, 16 h, various concentrations", "method": "In vivo, ECs can not migrate until they secrete enzymes necessary to break down components of the extra cellular matrix. Gelatin zymography was employed to determine if clustered Vasculotide promoted secretion of MMP2. To perform the zymography, HUVEC were cultured in F12 media plus 0.1% FBS and stimulated for 16 h with VEGF, unclustered Vasculotide or clustered Vasculotide at various concentrations. Conditioned media was centrifuged to remove cellular debris and prepared for gel electrophoresis using non-reducing conditions. Gels were washed twice for 30 minutes in 2.5% Triton X-100 to remove sodium dodecyl sulfate and were then incubated in substrate buffer (50 mmol/L Tris-HCl, pH 8.8, 5 mmol/L CaCl2) for 16 hours at 37° C. Gels were then stained with 0.5% Coomassie blue in 30% methanol/10% acetic acid for 2 hours at room temperature and destained in 50% methanol/10% acetic acid. The presence of metalloproteinases was indicated by unstained proteolytic zones in the gel.", "data": [{"substance": "clustered Vasculotide: Vasculotide clustered with avidin in a 4:1 ratio, an obligate tetrameric compound", "values": [{"measurement": "Secretion of MMP2 (gelatin degradation, pro and active forms)", "result": "dose-dependently degraded gelatin"}]}]}
